Source: patent publication US7893074B2, “2, 4-pyrimidinediamines useful in the treatment of neoplastic diseases, inflammatory and immune system disorders” (Novartis AG, priority 2003, dated 2011)
pIC50: −log10 of the molar value. Values joined by “and” are separate entries in the source; they are usually repeats but may differ in a detail not shown here. Equal entries are not always repeated. Where two headings read alike, the source gives them in different places.

Assays:
FAK = FAK (Mus musculus, UniProt P34152); assay: Phos IC50 (phosphorylation); type: cell-based
[1] = biological target: Focal Adhesion Kinase (FAK) (Homo sapiens, UniProt Q05397); assay: FAK assay system (Focal Adhesion Kinase inhibition); type: biochemical
[2] = tested on: Mouse mammary carcinoma 4T1 cells; assay: Anchorage-independent tumor cell growth assay; type: cell-based
Method: Cells are cultured for 2 h and inhibitors are added at various concentrations in a final concentration of 0.1% DMSO. After 48 h, cell growth is assayed with the cell counting kit-8 (Wako Pure Chemical), which uses a water soluble tetrazolium salt WST8. Twenty μL of the reagent is added into each well and cells are further cultured for 2 h. The optical density is measured at 450 nm.

Sequence of FAK (P34152 2-1052): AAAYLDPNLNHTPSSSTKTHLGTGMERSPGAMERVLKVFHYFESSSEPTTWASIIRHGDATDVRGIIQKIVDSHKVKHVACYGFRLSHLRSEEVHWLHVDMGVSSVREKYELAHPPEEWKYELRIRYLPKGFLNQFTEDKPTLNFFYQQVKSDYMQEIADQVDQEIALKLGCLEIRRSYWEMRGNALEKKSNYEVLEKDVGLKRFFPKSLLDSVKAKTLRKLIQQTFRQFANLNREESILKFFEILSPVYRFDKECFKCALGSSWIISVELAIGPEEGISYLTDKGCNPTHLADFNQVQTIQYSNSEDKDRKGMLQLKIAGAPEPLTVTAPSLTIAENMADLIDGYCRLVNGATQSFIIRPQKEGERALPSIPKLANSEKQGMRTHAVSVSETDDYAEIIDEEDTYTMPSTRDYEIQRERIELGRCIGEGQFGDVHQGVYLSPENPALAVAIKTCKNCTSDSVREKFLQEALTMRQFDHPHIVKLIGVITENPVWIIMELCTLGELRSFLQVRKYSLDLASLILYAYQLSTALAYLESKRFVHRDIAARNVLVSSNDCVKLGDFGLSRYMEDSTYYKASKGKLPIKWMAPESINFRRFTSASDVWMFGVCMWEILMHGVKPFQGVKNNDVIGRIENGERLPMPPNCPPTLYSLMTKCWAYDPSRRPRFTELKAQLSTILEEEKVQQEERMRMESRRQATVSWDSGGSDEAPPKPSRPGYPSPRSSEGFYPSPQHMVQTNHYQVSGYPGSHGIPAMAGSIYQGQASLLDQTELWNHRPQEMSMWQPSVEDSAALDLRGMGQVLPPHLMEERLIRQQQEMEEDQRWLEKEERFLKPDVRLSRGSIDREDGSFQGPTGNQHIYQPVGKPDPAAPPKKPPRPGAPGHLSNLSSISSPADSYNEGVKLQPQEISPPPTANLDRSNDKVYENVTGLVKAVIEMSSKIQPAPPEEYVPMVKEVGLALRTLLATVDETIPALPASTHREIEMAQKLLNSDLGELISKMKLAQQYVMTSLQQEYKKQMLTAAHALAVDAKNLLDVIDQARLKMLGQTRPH
Sequence of Focal Adhesion Kinase (FAK) (Q05397 384-706): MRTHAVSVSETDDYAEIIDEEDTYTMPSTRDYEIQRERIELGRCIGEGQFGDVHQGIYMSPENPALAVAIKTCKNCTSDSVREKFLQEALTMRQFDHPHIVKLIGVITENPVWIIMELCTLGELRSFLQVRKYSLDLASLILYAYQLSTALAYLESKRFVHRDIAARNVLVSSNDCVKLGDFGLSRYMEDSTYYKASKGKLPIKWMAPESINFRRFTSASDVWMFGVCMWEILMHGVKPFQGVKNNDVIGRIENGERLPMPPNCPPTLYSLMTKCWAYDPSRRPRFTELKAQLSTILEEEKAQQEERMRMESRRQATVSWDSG

| pIC50 ([1]; read-out: FAK IC50) | pIC50 ([2]; Mus musculus, 4T1) | SMILES | other results |
| --- | --- | --- | --- |
| 7.89 | 6.14 | CCNC(=O)c1ccccc1Nc1nc(Nc2ccc(N3CCC(N4CCCC4)CC3)cc2OC)ncc1Cl [Example 9-4] | pIC50 (FAK): 6.70 |
|  |  | CNS(=O)(=O)c1ccccc1Nc1nc(Nc2ccc(OC3CCN(C)C3)cc2OC)ncc1Cl (stereo not drawn) [Example 20-29] | pIC50 [2]: 7.30 |
| 7.37 | 6.15 | CNS(=O)(=O)c1ccccc1Nc1nc(Nc2cc(-c3cccc(OC)c3)ccc2C)ncc1Br [Example 3-28] | pIC50 (FAK): 6.15 |
| 7.55 | < 5.00 | COc1cc(F)ccc1Nc1ncc(Cl)c(Nc2ccccc2S(=O)(=O)NCC(F)(F)F)n1 [Example 16C] | pIC50 (FAK): 6.05 |
| 7.43 | 6.00 | CCNC(=O)c1cc(F)ccc1Nc1nc(Nc2ccc(N3CCOCC3)cc2OC)ncc1Cl [Example 14-5] | pIC50 (FAK): < 5.00 |
| 7.96 | 5.15 | COc1cc(F)ccc1Nc1ncc(Cl)c(Nc2ccccc2S(=O)(=O)N2CCOCC2)n1 [Example 16B] | pIC50 (FAK): 5.52 |
| 7.92 | < 5.00 | CCOc1ccc(OC)cc1Nc1ncc(Br)c(Nc2ccccc2S(=O)(=O)NC)n1 [Example 3-61] |  |
| 7.48 | 5.65 | CCCCCS(=O)(=O)c1ccccc1Nc1nc(Nc2ccc(N3CCOCC3)cc2OC)ncc1Cl [Example 34-3] | pIC50 (FAK): 6.72 |
| 8.20 | 7.40 | CNS(=O)(=O)c1ccccc1Nc1nc(Nc2cc(OC)c(N3CCN(C)CC3)cc2OC)ncc1Cl [Example 20-13] |  |
| 7.41 | 6.41 | CNS(=O)(=O)c1ccccc1Nc1nc(Nc2cc(C(=O)N3CCN(C)CC3)ccc2OC)ncc1Br [Example 3-49] |  |
| 8.62 | 6.00 | CNC(=O)c1ccccc1Nc1nc(Nc2ccc(N3CCOCC3)cc2OC)ncc1Br [Example 8-2] | pIC50 (FAK): 6.30 |
| 7.29 | 5.29 | COc1cc(N2CCOCC2)ccc1Nc1ncc(Cl)c(Nc2ccccc2S(=O)(=O)Cc2ccccc2)n1 [Example 34-5] | pIC50 (FAK): 6.44 |
| 7.72 | 5.70 | CNS(=O)(=O)c1ccccc1Nc1nc(Nc2ccc(F)cc2OC)ncc1Cl [Example 20-24] | pIC50 (FAK): 6.32 |
| 6.89 | 5.05 | CNS(=O)(=O)c1ccccc1Nc1nc(Nc2cc(C(C)C)ccc2C)ncc1Br [Example 3-18] | pIC50 (FAK): 5.82 |
| 8.59 |  | COc1cc(N2CCN3CCOC[C@H]3C2)ccc1Nc1ncc(Cl)c(Nc2cccc3c2C(=O)N(C)C3)n1 [Example 12-6] |  |
| 7.89 and 8.70 | 6.14 | CNC(=O)c1ccccc1Nc1nc(Nc2ccc(N3CCC(N4CCCC4)CC3)cc2OC)ncc1Cl [Example 7-25] | pIC50 [2]: 6.24 |
| 7.74 | 6.27 | COc1cc(N2CCOCC2)ccc1Nc1ncc(Cl)c(Nc2cccc3c2C(=O)CC3)n1 [Example 14-4] |  |
|  |  | CNS(=O)(=O)c1ccccc1Nc1nc(Nc2ccc(OC3CCN(C)C3)cc2OC)ncc1Br (stereo not drawn) [Example 3-82] | pIC50 [2]: 7.15 |
| 8.30 | 6.72 | CCCS(=O)(=O)c1ccccc1Nc1nc(Nc2ccc(N3CCCC(C(N)=O)C3)cc2OC)ncc1Cl (stereo not drawn) [Example 26-14] |  |
| 8.02 |  | CNS(=O)(=O)c1ccccc1Nc1nc(Nc2cc(OC)c(N3CCOCC3)cc2OC)ncc1Cl [Example 20-12] |  |
| 8.36 |  | CNC1CCN(c2ccc(Nc3ncc(Cl)c(Nc4ccccc4S(=O)(=O)C(C)C)n3)c(OC)c2)CC1 [Example 28-20] | pIC50 (FAK): […] |
| 8.60 | 6.42 | CNC1CCN(c2ccc(OC)c(Nc3ncc(Cl)c(Nc4ccccc4S(=O)(=O)NC)n3)c2)C1 (stereo not drawn) [Example 20-33] |  |
|  |  | CNC(=O)c1ccccc1Nc1nc(Nc2ccc(N3CCC[C@H](C(N)=O)C3)cc2OC)ncc1Cl [Example 7-18] | pIC50 ([1]; FAK IC50): 8.21 |
| 8.85 | 6.60 | CNC(=O)c1ccccc1Nc1nc(Nc2cc(N3CCC(NC)C3)ccc2OC)ncc1Cl (stereo not drawn) [Example 7-23] |  |
| 8.12 | 7.22 | CNS(=O)(=O)c1ccccc1Nc1nc(Nc2ccc(N3CCC(N4CCN(C)CC4)CC3)cc2OC)ncc1Cl [Example 20-16] |  |

| pIC50 ([1]; read-out: FAK IC50) | pIC50 ([2]; Mus musculus, 4T1) | SMILES | other results |
| --- | --- | --- | --- |
| 7.89 | 6.48 | CNC(=O)c1ccccc1Nc1nc(Nc2cc(N3CCC(N4CCN(C)CC4)CC3)ccc2OC)ncc1Cl [Example 7-19] |  |
|  |  | CNC(=O)c1ccccc1Nc1nc(Nc2ccc(N3CCC[C@@H](C(N)=O)C3)cc2OC)ncc1Cl [Example 7-17] | pIC50 ([1]; FAK IC50): 8.37 |
| 8.24 | 6.40 | COc1cc(N2CCCC(C(N)=O)C2)ccc1Nc1ncc(Cl)c(Nc2ccccc2S(=O)(=O)NC(C)C)n1 (stereo not drawn) [Example 19-19] |  |
|  |  | COc1cc(OC2CCN(C)CC2)ccc1Nc1ncc(Cl)c(Nc2ccccc2S(=O)(=O)C(C)C)n1 [Example 28-19] | pIC50 [2]: 6.85 |
|  |  | CCC(CC)NS(=O)(=O)c1ccccc1Nc1nc(Nc2ccc(OC3CCN(C)C3)cc2OC)ncc1Cl (stereo not drawn) [Example 23-7] | pIC50 [2]: 6.08 |
| 7.20 | 5.95 | COc1cc(N2CCOCC2)ccc1Nc1ncc(Cl)c(Nc2ccccc2C(=O)N2CCCC2)n1 [Example 14-6] |  |
| 8.72 |  | COc1cc(OCCN2CCOCC2)ccc1Nc1ncc(Cl)c(Nc2ccccc2S(=O)(=O)NC(C)C)n1 [Example 19-29] |  |
| 7.48 | 6.49 | CCCOc1cc(N2CCN(C)CC2)ccc1Nc1ncc(Cl)c(Nc2ccccc2S(=O)(=O)NC)n1 [Example 20-14] |  |
| 8.39 | 6.82 | CNC(=O)c1ccccc1Nc1nc(Nc2ccc(N3CCNCC3)cc2OC)ncc1Cl [Example 7-26] |  |
| 7.60 | 6.32 | CNC(=O)c1ccccc1Nc1nc(Nc2cc(N3CCN(C)CC3)ccc2OC)ncc1Cl [Example 7-22] |  |
| 8.70 | 6.85 | CNC1CCN(c2ccc(Nc3ncc(Cl)c(Nc4ccccc4S(=O)(=O)NC)n3)c(OC)c2)C1 (stereo not drawn) [Example 20-17] |  |
|  |  | CNC(=O)c1cc(N2CCCC2)ccc1Nc1nc(Nc2ccc(N3CCOCC3)cc2OC)ncc1Cl [Example 15-3] | pIC50 [2]: 5.78 |
| 7.55 | 6.68 | CNS(=O)(=O)c1ccccc1Nc1nc(Nc2cc(N3CCC(O)CC3)ccc2OC)ncc1Cl [Example 20-19] |  |
| 7.41 | 6.30 | CNS(=O)(=O)c1ccccc1Nc1nc(Nc2cc(N3CCN(C)CC3)ccc2OC)ncc1Cl [Example 20-31] |  |
| 7.82 | 6.33 | CNC(=O)c1cc(N2CCCC2)ccc1Nc1nc(Nc2ccc(N3CCN(C)CC3)cc2OC)ncc1Cl [Example 15-1] |  |
| 7.19 | 6.09 | CCN1Cc2cccc(Nc3nc(Nc4ccc(N5CCN(C)CC5)cc4OC)ncc3Cl)c2C1=O [Example 13-1] |  |
| 8.80 | 7.30 | COc1cc(N2CCN(C)CC2)ccc1Nc1ncc(Cl)c(Nc2cccc3c2C(=O)N(C)C3)n1 [Example 12-2] |  |
| 7.89 | 6.96 | CNS(=O)(=O)c1ccccc1Nc1nc(Nc2cc(N3CCC(N4CCCCC4)CC3)ccc2OC)ncc1Cl [Example 20-32] |  |
| 8.29 | 7.05 | CNC(=O)c1ccccc1Nc1nc(Nc2cc(N3CCC(N4CCCCC4)CC3)ccc2OC)ncc1Cl [Example 7-24] |  |
| 7.82 | 6.09 | CNS(=O)(=O)c1ccccc1Nc1nc(Nc2cc(N3CCC(N4CCN(C)CC4)CC3)ccc2OC)ncc1Cl [Example 20-18] |  |
| 8.96 |  | CCCS(=O)(=O)c1ccccc1Nc1nc(Nc2ccc(N3CCN(CC(=O)NC(C)C)CC3)cc2OC)ncc1Cl [Example 26-21] | pIC50 (FAK): 7.00 |
| 8.96 | 6.85 | COc1cc(N2CCC(N3CCN(C)CC3)CC2)ccc1Nc1ncc(Cl)c(Nc2cccc3c2C(=O)N(C)C3)n1 [Example 12-4] |  |
|  |  | CCNC(=O)c1ccccc1Nc1nc(Nc2ccc(N3CCC(N4CCCCC4)CC3)cc2OC)ncc1Cl [Example 9-3] | pIC50 [2]: 6.43 |
| 8.64 | 6.60 | COc1cc(N2CCC(O)CC2)ccc1Nc1ncc(Cl)c(Nc2cccc3c2C(=O)N(C)C3)n1 [Example 12-3] |  |

| SMILES | pIC50 ([1]; read-out: FAK IC50) | pIC50 ([2]; Mus musculus, 4T1) | other results |
| --- | --- | --- | --- |
| COc1cc(OCC(C)(C)CN(C)C)ccc1Nc1ncc(Cl)c(Nc2ccccc2S(=O)(=O)NC(C)C)n1 [Example 19-24] |  | 6.92 | pIC50 ([1]; FAK IC50): 8.74 |
| COc1cc(N2CCC(N3CCN(C)CC3)CC2)ccc1Nc1ncc(Cl)c(Nc2ccccc2S(=O)(=O)C(C)C)n1 [Example 28-5] |  | 6.92 | pIC50 (FAK): 7.00 |
| CCN1CCN(c2ccc(Nc3ncc(Cl)c(Nc4ccccc4S(=O)(=O)C(C)C)n3)c(OC)c2)CC1 [Example 28-12] | 8.49 | 6.37 |  |
| CNS(=O)(=O)c1ccccc1Nc1nc(Nc2ccc(OC)cc2OC)ncc1Br [Example 2, 2-[5-Bromo-2-(2,4-dimethoxy-phenylamino)-pyrimidin-4-ylamino]-N-methyl-benzenesulfonamide] | 7.89 |  |  |
| CNS(=O)(=O)c1ccccc1Nc1nc(Nc2cccc3c2CCC3)ncc1Br [Example 3-12] |  | 6.00 | pIC50 ([1]; FAK IC50): 8.27; pIC50 ([1]; FAK inhibition IC50, FAK assay system): 8.30 to 9.00 |
| CNS(=O)(=O)c1ccccc1Nc1nc(Nc2cccc(N(C)C)c2C)ncc1Br [Example 3-53] |  | 6.68 | pIC50 ([1]; FAK IC50): 8.22 |
| CNS(=O)(=O)c1ccccc1Nc1nc(Nc2ccc(F)cc2F)ncc1Br [Example 3-36] |  | 5.55 | pIC50 ([1]; FAK IC50): 7.37 |
| CNS(=O)(=O)c1ccccc1Nc1nc(Nc2cc(-c3ccc(OC)cc3)ccc2OC)ncc1Br [Example 3-56] |  | 6.82 | pIC50 ([1]; FAK IC50): 7.55 |
| COc1cc([N+](=O)[O-])ccc1Nc1ncc(Cl)c(Nc2ccccc2S(=O)(=O)C(C)C)n1 [Example 28-7] |  | < 5.00 | pIC50 ([1]; FAK IC50): 7.33 |
| COc1cc(N2CCOCC2)ccc1Nc1ncc(Cl)c(Nc2ccccc2S(=O)(=O)NC2CCCC2)n1 [Example 25-1] |  | 6.00 | pIC50 ([1]; FAK IC50): 8.07 |
| CNC(=O)c1cc(F)c(F)cc1Nc1nc(Nc2ccc(N3CCOCC3)cc2OC)ncc1Cl [Example 14-3] |  | 6.00 | pIC50 ([1]; FAK IC50): 7.52 |
